# Measured values: patent US10058579B2, “Dietary supplements containing extracts of cinnamon and methods of using same to promote enhanced sirtuin, cell and telomere integrity” (IN Ingredients, Inc., priority 2010, dated 2018)
# Test system: SIRT family mRNA expression
# Test: sirtuin (SIRT family) mRNA expression in rat primary enterocytes, quantitative PCR
# Type: cell-based
# Conditions: 2 μg/ml; enterocytes of chow-fed rats; FIG. 2
# From the text: The baseline value for the effects of a high fructose diet on SIRT family mRNA expression is established. The experimental protocols parallel those of Firestein, R., et al., PLoS ONE, 2008; 3(4): e2020. doi:10.1371/journal.pone.0002020 except using Wistar rats. The animals fed ad libitum with water and either a standard chow diet or a high fructose diet. Primary enterocytes are obtained from animals (6 months of age) following sacrifice and rapid harvest of the intestine. The isolated intestine is thoroughly flushed with ice cold PBS.
# Total RNA is isolated from primary enterocyte tissue obtained as above, adipose tissue (obtained by biopsy), or liver (obtained by biopsy) using TR1 reagent (Applied Biosystems, Austin, Tex.), according to the manufacturer's guidelines. The resulting total RNA is subjected to DNase treatment using RNase-free DNase (Ambion). The purity of isolated RNA is measured by a NanoDrop spectrophotometer. A set concentration of RNA is reverse transcribed into cDNA using SuperScript II RT, and quantitative PCR is performed on ABI Prism 7500 Sequence Detection System (Applied Biosystems, Carlsbad, Calif.) using SYBR Green PCR Master Mix (Applied Biosystems, Carlsbad, Calif.).
# The level of sirtuin mRNA expression is assayed following exposure of rat primary enterocytes to the anthocyanin delphinidin. […]
smiles,measurement,value
Oc1cc(O)c2cc(O)c(-c3cc(O)c(O)c(O)c3)[o+]c2c1 [delphinidin],increase of sirtuin gene expression as measured by mRNA levels over control,2-3 fold
